Read-outs that look alike come from different tables or passages of the source.
Tests used:
[1] = test system: HBV; assay: Anti-HBV activity in HepG2.2.15 cells (HBV DNA in culture medium by qPCR); format: cell-based; details: HepG2.2.15 cells, 6 days treatment, HBV DNA in culture medium quantified by real-time PCR, read-out: EC50
Method in brief: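 HepG2.2.15 cells in 2% FBS medium at 37 °C were treated with compounds for 6 days, with medium and compound refreshed at day 3; 1:3 dilutions, 8 concentrations in triplicate, top 10 or 1 uM. HBV DNA in culture medium quantified by qPCR to derive EC50; CC50 from parallel plates (top 100 uM).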

[2] = Cytotoxicity determination in HepG2.2.15 cells (CCK-8 cell viability); format: cell-based; details: human, 6 days treatment, CCK-8 assay, highest concentration 100 uM
Method in brief: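 HepG2.2.15 cells seeded at 5,000 cells/well in 2% FBS medium, exposed 6 days to compounds (8-point 1:3 dilutions from 100 uM, triplicate), refreshed at day 3. Viability read by CCK-8 after 2.5 h at 37° C, absorbance 450 nm with 630 nm reference; CC50 calculated.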

[3] = Hepatitis B virus, HepG2.2.15, 144 h

| SMILES | EC50 [1, 3] | CC50 at 6 days [2] | EC50 [1] |
| --- | --- | --- | --- |
| COC(=O)C1=C(CN2CC(F)(F)[C@H]3[C@@H]2CCN3CCC(C)(C)C(=O)O)NC(c2nccs2)=N[C@H]1c1ccc(F)cc1Cl (single isomer, unassigned) [Compound 127, 4-((cis)-4-((6-(2-Chloro-4-fluorophenyl)-5-(methoxycarbonyl)-2-(thiazol-2-yl)-3,6-dihydropyrimidin-4-yl)methyl)-6,6-difluorohexahydropyrrolo[3,2-b]pyrrol-1(2H)-yl)-2,2-dimethylbutanoic acid] | 0.0016 µM | 47.2 µM |  |
| COC(=O)C1=C(CN2CC(F)(F)[C@H]3[C@@H]2CCN3CCC(C)(C)C(=O)O)NC(c2nccs2)=N[C@H]1c1cccc(F)c1Cl (single isomer, unassigned) [Compound 128, 4-((cis)-4-((6-(2-Chloro-3-fluorophenyl)-5-(methoxycarbonyl)-2-(thiazol-2-yl)-3,6-dihydropyrimidin-4-yl)methyl)-6,6-difluorohexahydropyrrolo[3,2-b]pyrrol-1(2H)-yl)-2,2-dimethylbutanoic acid] | 0.0008 µM | 40.1 µM |  |
| CCOC(=O)C1=C(CN2CC(F)(F)[C@H]3[C@@H]2CCN3CC[C@H]2C[C@@H](C(=O)O)C2)NC(c2nccs2)=N[C@H]1c1cccc(F)c1C (single isomer, unassigned) [Compound 129A] | 0.0077 µM | 10.3 µM |  |
| CCOC(=O)C1=C(CN2CC(F)(F)[C@H]3[C@@H]2CCN3CC[C@H]2C[C@H](C(=O)O)C2)NC(c2nccs2)=N[C@H]1c1cccc(F)c1C (single isomer, unassigned) [Compound 129B] | 0.0029 µM | 12.4 µM |  |
| CCOC(=O)C1=C(CN2CC(F)(F)[C@H]3[C@@H]2CCN3C[C@@H]2CC[C@@H]2C(=O)O)NC(c2nccs2)=N[C@H]1c1cccc(F)c1C (single isomer, unassigned) [Compound 130A] | 0.0076 µM | 22.4 µM |  |
| CCOC(=O)C1=C(CN2CC(F)(F)[C@H]3[C@@H]2CCN3C[C@H]2CC[C@H]2C(=O)O)NC(c2nccs2)=N[C@H]1c1cccc(F)c1C (single isomer, unassigned) [Compound 130B] | < 0.0005 µM | 18.2 µM |  |
| COC(=O)C1=C(CN2CC(F)(F)[C@H]3[C@@H]2CCN3C[C@@H](C)C(=O)O)NC(c2nccs2)=N[C@H]1c1cccc(F)c1C (single isomer, unassigned) [Compound 131A, 3-((cis)-6,6-Difluoro-4-(((S*)-6-(3-fluoro-2-methylphenyl)-5-(methoxycarbonyl)-2-(thiazol-2-yl)-3,6-dihydropyrimidin-4-yl)methyl)hexahydropyrrolo[3,2-b]pyrrol-1(2H)-yl)-2-methylpropanoic acid] |  | 44.6 µM | 0.0005 µM |
| COC(=O)C1=C(CN2CC(F)(F)[C@H]3[C@@H]2CCN3C[C@@H](C)C(=O)O)NC(c2nccs2)=N[C@H]1c1cccc(F)c1Cl (single isomer, unassigned) [Compound 132A, 3-((cis)-4-((6-(2-Chloro-3-fluorophenyl)-5-(methoxycarbonyl)-2-(thiazol-2-yl)-3,6-dihydropyrimidin-4-yl)methyl)-6,6-difluorohexahydropyrrolo[3,2-b]pyrrol-1(2H)-yl)-2-methylpropanoic acid] | < 0.0005 µM | 40.7 µM |  |
| COC(=O)C1=C(CN2CC(F)(F)[C@H]3[C@@H]2CCN3C[C@H](C)C(=O)O)NC(c2nccs2)=N[C@H]1c1cccc(F)c1Cl (single isomer, unassigned) [Compound 132B, 3-((cis)-4-((6-(2-Chloro-3-fluorophenyl)-5-(methoxycarbonyl)-2-(thiazol-2-yl)-3,6-dihydropyrimidin-4-yl)methyl)-6,6-difluorohexahydropyrrolo[3,2-b]pyrrol-1(2H)-yl)-2-methylpropanoic acid] | 0.0107 µM | 71.8 µM |  |
| COC(=O)C1=C(CN2CC(F)(F)[C@H]3[C@@H]2CCN3C[C@@H](C)C(=O)O)NC(c2nccs2)=N[C@H]1c1ccc(F)cc1Cl (single isomer, unassigned) [Compound 133A, 3-((cis)-4-((6-(2-Chloro-4-fluorophenyl)-5-(methoxycarbonyl)-2-(thiazol-2-yl)-3,6-dihydropyrimidin-4-yl)methyl)-6,6-difluorohexahydropyrrolo[3,2-b]pyrrol-1(2H)-yl)-2-methylpropanoic acid] | < 0.0005 µM | 41.7 µM |  |
| COC(=O)C1=C(CN2CC(F)(F)[C@H]3[C@@H]2CCN3C[C@@H](C)C(=O)O)NC(c2nccs2)=N[C@H]1c1ccc(F)c(F)c1Cl (single isomer, unassigned) [Compound 134A, 3-((cis)-4-((6-(2-chloro-3,4-difluorophenyl)-5-(methoxycarbonyl)-2-(thiazol-2-yl)-3,6-dihydropyrimidin-4-yl)methyl)-6,6-difluorohexahydropyrrolo[3,2-b]pyrrol-1(2H)-yl)-2-methylpropanoic acid] | < 0.0005 µM | 26.9 µM |  |
| COC(=O)C1=C(CN2CC(F)(F)[C@H]3[C@@H]2CCN3C[C@H](C)C(=O)O)NC(c2nccs2)=N[C@H]1c1ccc(F)c(F)c1Cl (single isomer, unassigned) [Compound 134B, 3-((cis)-4-((6-(2-chloro-3,4-difluorophenyl)-5-(methoxycarbonyl)-2-(thiazol-2-yl)-3,6-dihydropyrimidin-4-yl)methyl)-6,6-difluorohexahydropyrrolo[3,2-b]pyrrol-1(2H)-yl)-2-methylpropanoic acid] | 0.0043 µM | 24.2 µM |  |
| CCOC(=O)C1=C(CN2CC(F)(F)[C@H]3[C@@H]2CCN3C[C@@H](C)C(=O)O)NC(c2nccs2)=N[C@H]1c1ccc(F)cc1Cl (single isomer, unassigned) [Compound 135A, 3-((cis)-4-((6-(2-chloro-4-fluorophenyl)-5-(ethoxycarbonyl)-2-(thiazol-2-yl)-3,6-dihydropyrimidin-4-yl)methyl)-6,6-difluorohexahydropyrrolo[3,2-b]pyrrol-1(2H)-yl)-2-methylpropanoic acid] | 0.0024 µM | 25.9 µM |  |
| CCOC(=O)C1=C(CN2CC(F)(F)[C@H]3[C@@H]2CCN3C[C@H](C)C(=O)O)NC(c2nccs2)=N[C@H]1c1ccc(F)cc1Cl (single isomer, unassigned) [Compound 135B, 3-((cis)-4-((6-(2-chloro-4-fluorophenyl)-5-(ethoxycarbonyl)-2-(thiazol-2-yl)-3,6-dihydropyrimidin-4-yl)methyl)-6,6-difluorohexahydropyrrolo[3,2-b]pyrrol-1(2H)-yl)-2-methylpropanoic acid] | 0.0099 µM | 36.3 µM |  |
| COC(=O)C1=C(CN2CC(F)(F)[C@H]3[C@@H]2CCN3CCC(C)(C)C(=O)O)NC(c2nccs2)=N[C@H]1c1cccc(F)c1C (single isomer, unassigned) [Compound 136, 4-((cis)-6,6-difluoro-4-((6-(3-fluoro-2-methylphenyl)-5-(methoxycarbonyl)-2-(thiazol-2-yl)-3,6-dihydropyrimidin-4-yl)methyl)hexahydropyrrolo[3,2-b]pyrrol-1(2H)-yl)-2,2-dimethylbutanoic acid] | 0.0021 µM | 34.4 µM |  |
| [2H]C([2H])(CC(C)(C)C(=O)O)N1CC[C@H]2[C@@H]1C(F)(F)CN2CC1=C(C(=O)OCC)[C@H](c2cccc(F)c2C)N=C(c2nccs2)N1 (single isomer, unassigned) [Compound 137] | 0.001 µM | 21.8 µM |  |

— US20230083012A1, “DIHYDROPYRIMIDINE DERIVATIVES AND USES THEREOF IN THE TREATMENT OF HBV INFECTION OR OF HBV-INDUCED DISEASES” (priority 2019, published 2023)
